Results on five compounds are retold here after patent US7030273B1, “Compounds with physiological cooling effect” (Qaroma, Inc, priority 2005, dated 2006).

The structures appear in SMILES notation.

The test system of data set [1] is cold receptors of the skin and mucous membranes of the human body. The experiment in a line: Panel test of physiological cooling ability against WS-23, solutions applied orally. In kind it is in vivo. Details: key: + means the compound has equal or stronger cooling effect than WS-23. Particulars: 2000 ppm solution applied orally; panel of 5 people. As to the method: The following testing procedure is aimed at determining physiological cooling ability of testing compounds with regard to WS-23 ([…]). The tests are carried out on a selected panel of 5 people. The present test procedure is done on a statistical basis because sensitivity to cooling compounds will vary not only from compound to compound and from one part of the body to another, but from one individual to another as well. Tests of this nature are commonly used on the testing and quality control of the organoleptic properties, e.g. taste, smell of organic and inorganic food products.
1 g of each testing compound is dissolved in 99 g denatured ethanol to form 1% solution. 2 g such solution is then diluted with 8 g deionized water to form 2000 ppm solution. The solutions are then applied orally to determine the cooling effect.
To test the cooling activity of the compounds in this invention, the compounds prepared in this invention are tested repeatedly by the 5 selected panelists and the results are compared with WS-23.

A further data set relates to tongue. The data set is described as follows: Toothpicks soaked in compound solution, put on tongue. In kind it is in vivo, human. As to conditions: toothpick tips soaked in 5% solution in denatured ethanol, dried. The source says: Toothpick tips were soaked in 5% solution of Compound 3 in this invention in denatured ethanol for long enough to have enough deposition of the compound. The picks were then dried.

The next data set deals with mouth. The data set is described as follows: Mint candies containing the compound, cooling effect in the mouth. In kind it is in vivo, human. Particulars: 0.02% in icing sugar candies. On the procedure: Icing sugar was mixed with small amount of water at 50° C. to form a paste. 0.02% Compound 5 in this invention was added and stirred. Cooled to room temperature, the mixture hardened and was broken into smaller pieces.

In general, melting point refers to the temperature, or range, at which the solid turns liquid.

Consider `CCOCCNC(=O)C(C)(C(C)C)C(C)C` [Compound 3, N-(2-ethoxyethyl)-2,3-dimethyl-2-isopropylbutyramide], for which the “Cooling ability compared to WS-23” value in data set [1] was “+”. In the data set with tongue, the “cooling sensation on tongue” value was “pronounced cooling sensation”.
`COCCCNC(=O)C(C)(C(C)C)C(C)C` [Compound 5, N-(3-methoxypropyl)-2,3-dimethyl-2-isopropylbutyramide] showed a melting point of 10 °C. Also, the “Cooling ability compared to WS-23” value in data set [1] is reported as “+”. For the same compound, the “cooling effect in the mouth” value in the data set on mouth is reported as “marked cooling effect in the mouth”.
`CCOCCCNC(=O)C(C)(C(C)C)C(C)C` [Compound 6, N-(3-ethoxypropyl)-2,3-dimethyl-2-isopropylbutyramide] displayed a melting point of 30 °C. For the same compound, in data set [1], the “Cooling ability compared to WS-23” value is “+”.
Compound `CC(C)OCCCNC(=O)C(C)(C(C)C)C(C)C` [Compound 7, N-(3-isopropoxypropyl)-2,3-dimethyl-2-isopropylbutyramide] gave a melting point of 32 °C. In addition, the “Cooling ability compared to WS-23” value in data set [1] was “+”.
Turning to `CCCCOCCCNC(=O)C(C)(C(C)C)C(C)C` [Compound 8, N-(3-butoxypropyl)-2,3-dimethyl-2-isopropylbutyramide], the melting point turned out to be 40 °C. Also, the “Cooling ability compared to WS-23” value in data set [1] is “+”.
